Experiment [1] deals with T1, Gal4-RORγ-LBD (Homo sapiens, UniProt P51449).
T1 construct: expressed in transfected cells
T1 sequence (P51449 269-508 limits assumed): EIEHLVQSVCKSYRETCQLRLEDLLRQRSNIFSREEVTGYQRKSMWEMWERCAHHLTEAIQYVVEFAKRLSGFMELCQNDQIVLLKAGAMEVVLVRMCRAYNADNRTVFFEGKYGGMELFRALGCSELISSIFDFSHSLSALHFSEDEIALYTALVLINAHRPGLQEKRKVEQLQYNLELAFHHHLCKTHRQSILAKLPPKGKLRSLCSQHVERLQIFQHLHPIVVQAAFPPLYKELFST
Briefly: Gal4-RORγ Luciferase Reporter Assay in HEK-293T Cells. It counts as cell-based. The settings on record: HEK-293 cells, luciferase reporter, in presence of ursolic acid; for Gal4-RORγ Assay Max Response: maximum response. The method in brief:
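Max Response was taken as the upper plateau of a 4-parameter logistic fit of luciferase signal, normalized to 100 for wells without ursolic acid or compound. Transiently Gal4-RORγ-LBD/Gal4-luc transfected HEK-293 cells carrying […] ursolic acid were incubated with test compounds (0.2% DMSO) overnight at 37 °C and read with One-Glo.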

Experiment [2] deals with T2, RORγ-LBD (Homo sapiens, UniProt P51449).
T2 construct: made in house; host or cells: SF9 cells (baculovirus); used as diluted lysate
T2 sequence (P51449 269-508 limits assumed): T1 sequence (P51449 269-508 limits assumed)
Briefly: RORγ-Ligand Binding Domain (LBD) TR-FRET Assay.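 On TR-FRET Assay Max Response: 665/615 nm signal ratio set to 100 without ursolic acid or test compound.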 It counts as biochemical. The following applies: RORγ-LBD TR-FRET assay; for TR-FRET Assay Max Response: maximum response. The method in brief: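 TR-FRET read-out using a biotin-tagged SRC1 coactivator LXXLL peptide (200 nM final), with the antagonist ursolic acid present at 2 μM final. Receptor is His-tagged LBD expressed in SF9 cells, ~3 nM final in pH 7.0 Tris/KCl/EDTA/DTT/BSA buffer; compounds in 1% DMSO final.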
A general note: In TR-FRET formats the signal depends on donor and acceptor labels being close together.

The EC50 is the concentration needed to bring the measured effect to its halfway point. Take `CCn1cc(S(=O)(=O)N2C[C@H](CCC(C)(C)O)Oc3ccc(/C=C(\C)c4c(F)cccc4Cl)cc32)c(OCCO)n1` [Example 121C, (S,E)-4-(6-(2-(2-chloro-6-fluorophenyl)prop-1-en-1-yl)-4-((1-ethyl-3-(2-hydroxyethoxy)-1H-pyrazol-4-yl)sulfonyl)-3,4-dihydro-2H-benzo[b][1,4]oxazin-2-yl)-2-methylbutan-2-ol]: in experiment [1], the EC50 is below 500 nM and the “Gal4-RORγ Assay Max Response” value was “** (a value in the range of greater than 90 to 150)”. Further, in experiment [2], the EC50 is below 500 nM and the “TR-FRET Assay Max Response” value is “**** (a value greater than 200)”.

As to `C/C(=C\c1ccc2c(c1)N(S(=O)(=O)c1cccc(C(F)(F)F)c1)C[C@H](CCN1CCC(C(=O)O)CC1)O2)c1c(F)cccc1Cl` [Example 122, (S,E)-1-(2-(6-(2-(2-Chloro-6-fluorophenyl)prop-1-en-1-yl)-4-((3-(trifluoromethyl)phenyl)sulfonyl)-3,4-dihydro-2H-benzo[b][1,4]oxazin-2-yl)ethyl)piperidine-4-carboxylic acid], in experiment [1], the EC50 was below 500 nM and the “Gal4-RORγ Assay Max Response” value was “** (a value in the range of greater than 90 to 150)”. Also, in experiment [2], the EC50 is below 500 nM and the “TR-FRET Assay Max Response” value is “*** (a value in the range of greater than 150 to 200)”.

On to `C/C(=C\c1ccc2c(c1)N(S(=O)(=O)c1cccc(C(F)(F)F)c1)C[C@H](CCCN1CCC(C(=O)O)CC1)O2)c1c(F)cccc1Cl` [Example 123, (S,E)-1-(3-(6-(2-(2-Chloro-6-fluorophenyl)prop-1-en-1-yl)-4-((3-(trifluoromethyl)phenyl)sulfonyl)-3,4-dihydro-2H-benzo[b][1,4]oxazin-2-yl)propyl)piperidine-4-carboxylic acid], for which, in experiment [1], the EC50 lay in the range of 500 to 5000 nM and the “Gal4-RORγ Assay Max Response” value is listed as “** (a value in the range of greater than 90 to 150)”. Also, in experiment [2], the EC50 is below 500 nM and the “TR-FRET Assay Max Response” value was “** (a value in the range of greater than 90 to 150)”.

With `C/C(=C\c1ccc2c(c1)N(S(=O)(=O)c1cccc(C(F)(F)F)c1)C[C@H](CCN1CCC[C@H]1C(=O)O)O2)c1c(F)cccc1Cl` [Example 124, (2-((S)-6-((E)-2-(2-Chloro-6-fluorophenyl)prop-1-en-1-yl)-4-((3-(trifluoromethyl)phenyl)sulfonyl)-3,4-dihydro-2H-benzo[b][1,4]oxazin-2-yl)ethyl)-L-proline], in experiment [1], the EC50 is 500 to 5000 nM and the “Gal4-RORγ Assay Max Response” value is listed as “** (a value in the range of greater than 90 to 150)”. In experiment [2], the EC50 was below 500 nM and the “TR-FRET Assay Max Response” value is on record as “*** (a value in the range of greater than 150 to 200)”.

Take `C/C(=C\c1ccc2c(c1)N(S(=O)(=O)c1cccc(C(F)(F)F)c1)C[C@H](CO)O2)c1c(F)cccc1Cl` [Example 125, (R,E)-(6-(2-(2-Chloro-6-fluorophenyl)prop-1-en-1-yl)-4-((3-(trifluoromethyl)phenyl)sulfonyl)-3,4-dihydro-2-h-benzo[b][1,4]oxazin-2-yl)methanol]: in experiment [1], the EC50 is below 500 nM and the “Gal4-RORγ Assay Max Response” value is “** (a value in the range of greater than 90 to 150)”. In experiment [2], the EC50 was below 500 nM and the “TR-FRET Assay Max Response” value is “*** (a value in the range of greater than 150 to 200)”.

`C/C(=C\c1ccc2c(c1)N(S(=O)(=O)c1cccc(C(F)(F)F)c1)C[C@H](CCC(=O)N1CCCC1)O2)c1c(F)cccc1Cl` [Example 126, (S,E)-3-(6-(2-(2-Chloro-6-fluorophenyl)prop-1-en-1-yl)-4-((3-(trifluoromethyl)phenyl)sulfonyl)-3,4-dihydro-2H-benzo[b][1,4]oxazin-2-yl)-1-(pyrrolidin-1-yl)propan-1-one]: in experiment [1], the EC50 was below 500 nM and the “Gal4-RORγ Assay Max Response” value is given as “** (a value in the range of greater than 90 to 150)”. In experiment [2], the EC50 was below 500 nM and the “TR-FRET Assay Max Response” value is “** (a value in the range of greater than 90 to 150)”.

For `C/C(=C\c1ccc2c(c1)N(S(=O)(=O)c1cccc(C(F)(F)F)c1)C[C@H](CCC(=O)N1CCC(C(N)=O)CC1)O2)c1c(F)cccc1Cl` [Example 127A, (S,E)-1-(3-(6-(2-(2-chloro-6-fluoro-phenyl)-prop-1-en-1-yl)-4-((3-(trifuoromethyl)phenyl)sulfonyl)-3,4-dihydro-2H-benzo[b][1,4]oxazin-2-yl)propanoyl)piperidine-4-carboxamide], in experiment [1], the EC50 is below 500 nM and the “Gal4-RORγ Assay Max Response” value is reported as “** (a value in the range of greater than 90 to 150)”. Also, in experiment [2], the half-maximal effective concentration (EC50) was below 500 nM and the “TR-FRET Assay Max Response” value was “**** (a value greater than 200)”.

On to `C/C(=C\c1ccc2c(c1)N(S(=O)(=O)c1cccc(C(F)(F)F)c1)C[C@H](CCC(=O)N1CCOCC1)O2)c1c(F)cccc1Cl` [Example 127B, (S,E)-3-(6-(2-(2-chloro-6-fluorophenyl)prop-1-en-1-yl)-4-((3-(trifluoromethyl)phenyl)sulfonyl)-3,4-dihydro-2H-benzo[b][1,4]oxazin-2-yl)-1-morpholino-propan-1-one], for which, in experiment [1], the EC50 is below 500 nM and the “Gal4-RORγ Assay Max Response” value is listed as “** (a value in the range of greater than 90 to 150)”. Also, in experiment [2], the EC50 was below 500 nM and the “TR-FRET Assay Max Response” value was “**** (a value greater than 200)”.

For the compound `C/C(=C\c1ccc2c(c1)N(S(=O)(=O)c1cccc(C(F)(F)F)c1)C[C@H](CCC(=O)N1CCS(=O)(=O)CC1)O2)c1c(F)cccc1Cl` [Example 127C, (S,E)-3-(6-(2-(2-chloro-6-fluorophenyl)prop-1-en-1-yl)-4-((3-(trifluoro-methyl)phenyl)sulfonyl)-3,4-dihydro-2H-benzo[b][1,4]oxazin-2-yl)-1-(1,1-dioxidothio-morpholino)propan-1-one], in experiment [1], the EC50 is below 500 nM and the “Gal4-RORγ Assay Max Response” value is listed as “** (a value in the range of greater than 90 to 150)”. In experiment [2], the concentration for a half-maximal effect (EC50) was below 500 nM and the “TR-FRET Assay Max Response” value is “**** (a value greater than 200)”.

Consider `C/C(=C\c1ccc2c(c1)N(S(=O)(=O)c1cccc(C(F)(F)F)c1)C[C@H](CCC(=O)N1CC3(COC3)C1)O2)c1c(F)cccc1Cl` [Example 127D, (S,E)-3-(6-(2-(2-chloro-6-fluorophenyl)prop-1-en-1-yl)-4-((3-(trifluoro-methyl)phenyl)sulfonyl)-3,4-dihydro-2H-benzo[b][1,4]oxazin-2-yl)-1-(2-oxa-6-azaspiro[3.3]heptan-6-yl)propan-1-one], for which, in experiment [1], the EC50 is below 500 nM and the “Gal4-RORγ Assay Max Response” value is “** (a value in the range of greater than 90 to 150)”. In experiment [2], the EC50 was below 500 nM and the “TR-FRET Assay Max Response” value is on record as “**** (a value greater than 200)”.

Consider `C/C(=C\c1ccc2c(c1)N(S(=O)(=O)c1cccc(C(F)(F)F)c1)C[C@H](CCC(=O)N1C[C@@H](C)O[C@@H](C)C1)O2)c1c(F)cccc1Cl` [Example 127E, 3-((S)-6-((E)-2-(2-chloro-6-fluorophenyl)prop-1-en-1-yl)-4-((3-(trifluoromethyl)phenyl)sulfonyl)-3,4-dihydro-2H-benzo[b][1,4]oxazin-2-yl)-1-((2S,6R)-2,6-dimethylmorpholino)propan-1-one], for which, in experiment [1], the EC50 is below 500 nM and the “Gal4-RORγ Assay Max Response” value is “* (a value in the range of 30 to 90)”. In experiment [2], the EC50 was below 500 nM and the “TR-FRET Assay Max Response” value was “*** (a value in the range of greater than 150 to 200)”.

Take `C/C(=C\c1ccc2c(c1)N(S(=O)(=O)c1cccc(C(F)(F)F)c1)C[C@H](CCC(=O)N1CCNCC1)O2)c1c(F)cccc1Cl` [Example 127F, (S,E)-3-(6-(2-(2-chloro-6-fluorophenyl)prop-1-en-1-yl)-4-((3-(trifluoromethyl)phenyl)sulfonyl)-3,4-dihydro-2H-benzo[b][1,4]oxazin-2-yl)-1-(piperazin-1-yl)propan-1-one]: in experiment [1], the EC50 lay in the range of 500 to 5000 nM and the “Gal4-RORγ Assay Max Response” value is given as “** (a value in the range of greater than 90 to 150)”. Further, in experiment [2], the EC50 was below 500 nM and the “TR-FRET Assay Max Response” value is reported as “**** (a value greater than 200)”.

For the compound `O=C(CC[C@H]1CN(S(=O)(=O)c2cccc(C(F)(F)F)c2)c2cc(/C=C/c3c(Cl)cccc3C(F)(F)F)ccc2O1)N1CC2(COC2)C1` [Example 127G, (S,E)-3-(6-(2-chloro-6-(trifluoromethyl)styryl)-4-((3-(trifluoromethyl)-phenyl)sulfonyl)-3,4-dihydro-2H-benzo[b][1,4]oxazin-2-yl)-1-(2-oxa-6-azaspiro[3.3]heptan-6-yl)propan-1-one], in experiment [1], the EC50 was 500 to 5000 nM and the “Gal4-RORγ Assay Max Response” value was “* (a value in the range of 30 to 90)”. Also, in experiment [2], the EC50 was below 500 nM and the “TR-FRET Assay Max Response” value was “**** (a value greater than 200)”.

The values above are taken from patent US9896441B2 (Lycera Corporation, priority 2014, dated 2018).
